Measured values: ChEMBL document CHEMBL1149902, “Steroidal triglycosides, kurilensosides A, B, and C, and other polar steroids from the Far Eastern starfish Hippasteria kurilensis” (2008)

How the values were obtained:
Type in all cases: functional
Mesocentrotus nudus [1] = experiment: Inhibition of Strongylocentrotus nudus egg fertilization by Strongylocentrotus nudus sperm
Mesocentrotus nudus [2] = experiment: Inhibition of Strongylocentrotus nudus egg fertilization by Strongylocentrotus nudus sperm at 13 uM
Mesocentrotus nudus [3] = experiment: Inhibition of Strongylocentrotus nudus egg fertilization by Strongylocentrotus nudus sperm at 55 uM
Mesocentrotus nudus [4] = experiment: Inhibition of Strongylocentrotus nudus egg fertilization by Strongylocentrotus nudus sperm at 67 uM

| SMILES | EC100 (Mesocentrotus nudus [1]) | inhibition at 55 µM (Mesocentrotus nudus [3]) | also measured |
| --- | --- | --- | --- |
| CC(C)[C@@H](O)/C=C/[C@@H](C)[C@H]1C[C@@H](O)C2[C@@]3(O)C(CC[C@@]21C)[C@@]1(C)CC[C@H](O)[C@H](O)C1[C@@H](OS(=O)(=O)[O-])[C@H]3O.[Na+] (stereo partly specified) | 11 ×10⁻⁵ M | – | – |
| CC(C)[C@@H](O)CC[C@@H](C)[C@H]1C[C@H](O)[C@@H]2[C@]1(C)CC[C@H]1[C@@]2(O)C[C@@H](O)C2[C@@H](O)[C@@H](O)CC[C@@]21C (stereo partly specified) | – | – | inhibition at 13 µM (Mesocentrotus nudus [2]): 100% |
| CO[C@H]1[C@H](O[C@H]2CC[C@@]3(C)C([C@H](O)C[C@@]4(O)[C@@H]5[C@@H](O)C[C@H]([C@H](C)CC[C@H](O[C@@H]6O[C@@H](CO)[C@H](OS(=O)(=O)[O-])[C@H]6O[C@@H]6O[C@@H](CO)[C@H](O)[C@H]6O)C(C)C)[C@@]5(C)CC[C@@H]43)[C@H]2O)OC[C@@H](O)[C@@H]1O.[Na+] (stereo partly specified) [KURILENSOSIDE A] | 8.9 ×10⁻⁵ M | – | – |
| CO[C@H]1[C@H](O[C@H]2CC[C@@]3(C)C([C@H]2O)[C@@H](O)[C@@H](O)[C@@]2(O)[C@@H]4[C@H](O)C[C@H]([C@H](C)CC[C@H](O[C@@H]5O[C@@H](CO[C@H]6OC[C@H](O)[C@@H](O)[C@@H]6O)[C@H](O)[C@H]5O)C(C)C)[C@@]4(C)CC[C@@H]23)OC[C@@H](OC)[C@@H]1O (stereo partly specified) [KURILENSOSIDE B] | – | 100% | – |
| CO[C@H]1[C@H](OC[C@@H]2O[C@@H](O[C@@H](CC[C@@H](C)[C@H]3C[C@@H](O)[C@@H]4[C@]3(C)CC[C@H]3[C@@]4(O)[C@H](O)[C@H](O)C4[C@@H](O)[C@@H](O[C@@H]5OC[C@@H](O)[C@H](O)[C@H]5OC)CC[C@@]43C)C(C)C)[C@H](O)[C@H]2O)OC[C@@H](O)[C@@H]1O (stereo partly specified) [KURILENSOSIDE C] | – | 100% | – |
| CO[C@H]1[C@H](OC[C@@H]2O[C@@H](O[C@@H](CC[C@@H](C)[C@H]3C[C@@H](O)[C@@H]4[C@]3(C)CC[C@H]3[C@@]4(O)C[C@H](O)C4[C@@H](O)[C@@H](O)CC[C@@]43C)C(C)C)[C@H](O)[C@H]2O)OC[C@@H](O)[C@@H]1O (stereo partly specified) [KURILENSOSIDE D] | – | – | inhibition at 67 µM (Mesocentrotus nudus [4]): 100% |
